Target: T1, CSBP/p38 (Homo sapiens, UniProt Q16539)
T1 construct: made in house; host or cells: yeast
Assay: CSBP/p38 Kinase Assay (32P transfer from ATP to EGFR-derived T669 peptide)
Assay type: biochemical
Settings: yeast-expressed, activated and purified p38, 0.17 mM ATP, 25 min at 37° C., read-out: IC50, positive inhibitory activity in this binding assay
Procedure: Assay: Test compound concentrations were prepared at 10× concentrations and LPS prepared at […] (final conc. of 50 ng/ml LPS) and added in 50 uL volumes to 1.5 mL eppendorf tubes. Heparinized human whole blood was obtained from healthy volunteers and was dispensed into eppendorf tubes containing compounds and LPS in 0.4 mL volumes and the tubes incubated at 37 C. Following a 4 hour incubation, the tubes were centrifuged at 5000 rpm for 5 minutes in a TOMY microfuge, plasma was withdrawn and frozen at −80 C. Cytokine measurement: IL-1 and/or TNF were quantified using a standardized ELISA technology. An in-house ELISA kit was used to detect human IL-1 and TNF. Concentrations of IL-1 or TNF were determined from standard curves of the appropriate cytokine and IC50 values for test compound (concentration that inhibited 50% of LPS-stimulated cytokine production) were calculated by linear regression analysis. CSBP/p38 Kinase Assay:
This assay measures the CSBP/p38-catalyzed transfer of ^32P from […] to threonine residue in an epidermal growth factor receptor (EGFR)-derived peptide (T669) with the following sequence: […] (SEQ ID No. 1) (residues 661-681). […]
Reactions were carried in round bottom 96 well plate (from Corning) in a 30 ml volume. […] Filters were washed with 75 mM phosphoric acids, and incorporated 32P was quantified using beta scintillation counter. […]

T1 sequence (Q16539 whole entry): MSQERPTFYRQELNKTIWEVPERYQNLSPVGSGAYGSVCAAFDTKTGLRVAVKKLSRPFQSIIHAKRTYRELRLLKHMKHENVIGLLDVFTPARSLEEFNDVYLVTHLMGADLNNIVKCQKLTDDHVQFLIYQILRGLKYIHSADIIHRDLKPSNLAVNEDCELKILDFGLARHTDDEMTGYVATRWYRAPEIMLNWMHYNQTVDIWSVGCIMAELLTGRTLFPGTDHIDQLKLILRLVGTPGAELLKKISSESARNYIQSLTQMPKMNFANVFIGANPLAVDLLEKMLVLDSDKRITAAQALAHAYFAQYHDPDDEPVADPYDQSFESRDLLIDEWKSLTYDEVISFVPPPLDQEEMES

Row | IC50 [µM] | SMILES
1 | < 10 | CSc1nc(Oc2ccccc2)c2ccc(=O)n(-c3ccccc3Cl)c2n1 [Example 111, 8-(2-Chloro-phenyl)-2-methylsulfanyl-4-phenoxy-8H-pyrido[2,3-d]pyrimidin-7-one]

System: not given
Assay: not given
Settings: not given

Row | melting point | SMILES
2 | 106 to 119 °C | Cc1cc(F)ccc1-c1nc(NCCNC(=O)OC(C)(C)C)nc2c1ccc(=O)n2-c1c(F)cccc1F [Example 167]
3 | > 300 °C | Cc1cc(F)ccc1-c1nc(Nc2c[nH]c(=O)[nH]c2=O)nc2c1ccc(=O)n2-c1c(F)cccc1F [Example 168, 8-(2,6-Difluorophenyl)-4-(4-fluoro-2-methylphenyl)-2-(N-aminouracil-5-yl)-8H-pyrido[2,3-d]pyrimidin-7-one]
4 | 105 to 115 °C (dec.) | Cc1cc(F)ccc1-c1nc(NCCNS(C)(=O)=O)nc2c1ccc(=O)n2-c1c(F)cccc1F [Example 189, N-[2-[[8-(2,6-Difluorophenyl)-4-(4-fluoro-2-methylphenyl)-7,8-d hydro-7-oxopyrido[2,3-d]pyrimidin-2-yl]amino]ethyl]methanesulfonamide]
5 | 212 to 213 °C | COC(=O)CNc1nc(-c2ccc(F)cc2C)c2ccc(=O)n(-c3c(F)cccc3F)c2n1 [Example 190, Methyl N-[8-(2,6-difluorophenyl)-4-(4-fluoro-2-methylphenyl)-7,8-dihydro-7-oxopyrido[2,3-d]pyrimidin-2-yl] glycinate]
6 | 260 to 261 °C | Cc1cc(F)ccc1-c1nc(NCC(=O)O)nc2c1ccc(=O)n2-c1c(F)cccc1F [Example 191, N-[8-(2,6-Difluorophenyl)-4-(4-fluoro-2-methylphenyl)-7,8-dihydro-7-oxopyrido[2,3-d]pyrimidin-2-yl]glycine]
7 | 250 to 253 °C (dec.) | CCNC(=O)CNc1nc(-c2ccc(F)cc2C)c2ccc(=O)n(-c3c(F)cccc3F)c2n1 [Example 192]

More lines, now with the values behind:

Row | SMILES | melting point
8 | Cc1cc(F)ccc1-c1nc(NCCNC(=O)c2ccccc2)nc2c1ccc(=O)n2-c1c(F)cccc1F [Example 163, 8-(2,6-Difluorophenyl)-4-(4-fluoro-2-methylphenyl)-2-[N-(2-aminoethyl)-3-benzamido]-8H-pyrido[2,3-d]pyrimidin-7-one] | 246 to 248 °C
9 | CCC(=O)NCCNc1nc(-c2ccc(F)cc2C)c2ccc(=O)n(-c3c(F)cccc3F)c2n1 [Example 165] | 214 to 216 °C
10 | Cc1cc(F)ccc1-c1nc(NCCNC(=O)C(C)(C)C)nc2c1ccc(=O)n2-c1c(F)cccc1F [Example 166] | 111 to 133 °C

From US7759486B2, “2,4,5-Trisubstituted pyrimidine compounds” (GlaxoSmithKline LLC, priority 2000, dated 2010)
